From ChEMBL document CHEMBL5143523, “Construction and activity evaluation of novel benzodioxane derivatives as dual-target antifungal inhibitors” (Eur J Med Chem, 2022)
≈ marks a conversion by molar mass, not a printed value. Calls of active or inactive are those of the source. The rule behind the calls is not given here.

Tests used:
Candida albicans [1] = assay: Antifungal activity against Candida albicans ATCC SC5314 assessed as decrease in ergosterol content at 4 ug/ml incubated for 48 hrs by LC-MS analysis (reference value: 90.6%); type: functional; design: scale not given: the % may be the effect or the level left; details: dose 4 µg/ml
Candida albicans [2] = assay: Antifungal activity against fluconazole resistant Candida albicans strain CaR assessed as fungal growth inhibition measured after 72 hrs in presence of miconazole by CLSI protocol based liquid medium dilution method
Candida albicans [3] = assay: Antifungal activity against fluconazole resistant Candida albicans strain 17# assessed as fungal growth inhibition measured after 72 hrs by CLSI protocol based liquid medium dilution method; type: functional
Candida albicans [4] = assay: microbe, parasite or virus in culture; details: Candida albicans, 904, 72 h
Description: Antifungal activity against fluconazole resistant Candida albicans strain 904 assessed as fungal growth inhibition measured after 72 hrs in presence of miconazole by CLSI protocol based liquid medium dilution method

Candida albicans [5] = assay: Antifungal activity against Candida albicans ATCC SC5314 assessed as change in eburicol level at 4 ug/ml incubated for 48 hrs by LC-MS analysis (reference value: 1.4%); type: functional; details: dose 4 µg/ml
Candida albicans [6] = assay: Antifungal activity against fluconazole resistant Candida albicans strain 103 assessed as fungal growth inhibition measured after 72 hrs by CLSI protocol based liquid medium dilution method; type: functional
Candida albicans [7] = assay: Induction of apoptosis in Candida albicans ATCC SC5314 cells assessed as late apoptotic cells at 8 ug/ml incubated for 72 hrs by Annexin V-FITC/PI staining based flow cytometry method (reference value: 0.12%); type: functional; details: dose 8 µg/ml
Nakaseomyces glabratus = assay: Antifungal activity against Candida glabrata ATCC 0001 assessed as fungal growth inhibition measured after 72 hrs by CLSI protocol based liquid medium dilution method; type: functional
Aspergillus fumigatus = assay: Antifungal activity against Aspergillus fumigatus KM8001 assessed as fungal growth inhibition measured after 72 hrs by CLSI protocol based liquid medium dilution method; type: functional
Pichia kudriavzevii = assay: Antifungal activity against Candida krusei ATCC 6258 assessed as fungal growth inhibition measured after 72 hrs by CLSI protocol based liquid medium dilution method; type: functional
Candida albicans [8] = assay: Antifungal activity against Candida albicans ATCC 10231 assessed as fungal growth inhibition measured after 72 hrs by CLSI protocol based liquid medium dilution method; type: functional
Candida albicans [9] = assay: Antifungal activity against Candida albicans ATCC SC5314 assessed as change in unknown sterol level at 4 ug/ml incubated for 48 hrs by LC-MS analysis (reference value: 4.3%); type: functional; details: dose 4 µg/ml
Candida tropicalis = assay: Antifungal activity against Candida tropicalis ATCC 1369 assessed as fungal growth inhibition measured after 72 hrs by CLSI protocol based liquid medium dilution method; type: functional
Candida albicans [10] = assay: Induction of apoptosis in Candida albicans ATCC SC5314 cells assessed as early apoptotic cells at 8 ug/ml incubated for 72 hrs by Annexin V-FITC/PI staining based flow cytometry method (reference value: 0.56%); type: functional; details: dose 8 µg/ml
Candida albicans [11] = assay: Antifungal activity against fluconazole resistant Candida albicans strain 17# assessed as fungal growth inhibition measured after 72 hrs in presence of miconazole by CLSI protocol based liquid medium dilution method
Candida albicans [12] = assay: Antifungal activity against fluconazole resistant Candida albicans strain 901 assessed as fungal growth inhibition measured after 72 hrs by CLSI protocol based liquid medium dilution method; type: functional
Candida albicans [13] = assay: Antifungal activity against Candida albicans ATCC SC5314 assessed as change in squalene level at 4 ug/ml incubated for 48 hrs by LC-MS analysis; type: functional; details: dose 4 µg/ml
Candida albicans [14] = assay: Antifungal activity against fluconazole resistant Candida albicans strain CaR assessed as fungal growth inhibition measured after 72 hrs by CLSI protocol based liquid medium dilution method; type: functional
Candida albicans [15] = assay: Induction of apoptosis in Candida albicans ATCC SC5314 cells assessed as necrotic cells at 8 ug/ml incubated for 72 hrs by Annexin V-FITC/PI staining based flow cytometry method (reference value: 3.76%); type: functional; details: dose 8 µg/ml
Candida albicans [16] = assay: Antifungal activity against Candida albicans ATCC SC5314 assessed as change in lanosterol level at 4 ug/ml incubated for 48 hrs by LC-MS analysis (reference value: 3.7%); type: functional; details: dose 4 µg/ml
Candida albicans [17] = assay: Antifungal activity against fluconazole resistant Candida albicans strain 904 assessed as fungal growth inhibition measured after 72 hrs by CLSI protocol based liquid medium dilution method; type: functional
Candida albicans [18] = assay: microbe, parasite or virus in culture; details: Candida albicans, 103, 72 h
Description: Antifungal activity against fluconazole resistant Candida albicans strain 103 assessed as fungal growth inhibition measured after 72 hrs in presence of miconazole by CLSI protocol based liquid medium dilution method

Squalene epoxidase ERG1 = biological target: T1, Squalene epoxidase ERG1 (Candida albicans, UniProt Q92206); assay: Inhibition of SE in Candida albicans ATCC SC5314 incubated for 30 mins using squalene as substrate in presence of NADPH by spectrophotometer analysis
T1 sequence (Q92206 whole entry): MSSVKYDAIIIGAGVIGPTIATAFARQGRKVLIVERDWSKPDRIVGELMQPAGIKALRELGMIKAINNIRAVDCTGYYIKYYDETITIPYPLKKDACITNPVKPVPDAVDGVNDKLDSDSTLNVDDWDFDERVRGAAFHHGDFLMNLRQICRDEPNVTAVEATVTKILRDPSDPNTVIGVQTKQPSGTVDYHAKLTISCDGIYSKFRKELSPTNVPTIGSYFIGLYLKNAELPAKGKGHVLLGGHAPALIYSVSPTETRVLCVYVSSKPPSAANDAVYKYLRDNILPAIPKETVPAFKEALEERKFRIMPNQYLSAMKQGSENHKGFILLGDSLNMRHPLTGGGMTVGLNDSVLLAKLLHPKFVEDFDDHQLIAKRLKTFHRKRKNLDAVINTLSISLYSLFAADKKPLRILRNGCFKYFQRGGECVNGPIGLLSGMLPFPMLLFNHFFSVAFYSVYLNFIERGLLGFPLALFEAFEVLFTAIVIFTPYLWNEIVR

Candida albicans [19] = assay: microbe, parasite or virus in culture; details: Candida albicans, 901, 72 h
Description: Antifungal activity against fluconazole resistant Candida albicans strain 901 assessed as fungal growth inhibition measured after 72 hrs in presence of miconazole by CLSI protocol based liquid medium dilution method

Candida albicans [20] = assay: Induction of apoptosis in Candida albicans ATCC SC5314 cells assessed as live cells at 8 ug/ml incubated for 72 hrs by Annexin V-FITC/PI staining based flow cytometry method (reference value: 95.56%); type: functional; details: dose 8 µg/ml
Candida albicans [21] = assay: Antifungal activity against fluconazole resistant Candida albicans strain 901 assessed as fungal growth inhibition measured after 72 hrs in presence of naftifine by CLSI protocol based liquid medium dilution method; type: functional
Candida albicans [22] = assay: Antifungal activity against fluconazole resistant Candida albicans strain 901 assessed as decrease in fungal cell density in presence naftifine of by fluorescence microscopy; type: functional, organism-based
[23] = Drug uptake in fluconazole resistant Candida albicans strain 901 in presence of naftifine by fluorescence microscopy; type: ADME
Candida albicans [24] = assay: Antifungal activity against fluconazole resistant Candida albicans strain CaR assessed as fungal growth inhibition measured after 72 hrs in presence of naftifine by CLSI protocol based liquid medium dilution method; type: functional
Candida albicans [25] = assay: Antifungal activity against fluconazole resistant Candida albicans strain 103 assessed as fungal growth inhibition measured after 72 hrs in presence of naftifine by CLSI protocol based liquid medium dilution method; type: functional
Candida albicans [26] = assay: Antifungal activity against fluconazole resistant Candida albicans strain 904 assessed as fungal growth inhibition measured after 72 hrs in presence of naftifine by CLSI protocol based liquid medium dilution method; type: functional
Candida albicans [27] = assay: Antifungal activity against fluconazole resistant Candida albicans strain 17# assessed as fungal growth inhibition measured after 72 hrs in presence of naftifine by CLSI protocol based liquid medium dilution method; type: functional

CN(C/C=C/c1ccccc1)Cc1cccc2ccccc12 [NAFTIFINE]
Activity (Candida albicans [1]): 35.1%
MIC50 (Candida albicans [2]): 1 mg/L
MIC50 (Candida albicans [3]): 2 mg/L (≈ 6.96 µM)
MIC50 (Candida albicans [4]): 1 mg/L (≈ 3.48 µM)
Activity (Candida albicans [5]): 3.7%
MIC50 (Candida albicans [6]): 4 mg/L (≈ 13.9 µM)
Activity (Candida albicans [7]): 1.99%
MIC50 (Nakaseomyces glabratus): 1 mg/L (≈ 3.48 µM)
MIC50 (Aspergillus fumigatus): 4 mg/L (≈ 13.9 µM)
MIC50 (Pichia kudriavzevii): 0.5 mg/L (≈ 1.74 µM)
MIC50 (Candida albicans [8]): 0.5 mg/L (≈ 1.74 µM)
Activity (Candida albicans [9]): 5.8%
MIC50 (Candida tropicalis): 0.5 mg/L (≈ 1.74 µM)
Activity (Candida albicans [10]): 0.56%
MIC50 (Candida albicans [11]): 1 mg/L
MIC50 (Candida albicans [12]): 2 mg/L (≈ 6.96 µM)
Activity (Candida albicans [13]): 52.8%
MIC50 (Candida albicans [14]): 4 mg/L (≈ 13.9 µM)
Activity (Candida albicans [15]): 35.85%
Activity (Candida albicans [16]): 2.6%
MIC50 (Candida albicans [17]): 4 mg/L (≈ 13.9 µM)
MIC50 (Candida albicans [18]): 2 mg/L (≈ 6.96 µM)
IC50 (Squalene epoxidase ERG1): 0.317 µM
MIC50 (Candida albicans [19]): 2 mg/L (≈ 6.96 µM)
Activity (Candida albicans [20]): 61.6%

Clc1ccc(COC(Cn2ccnc2)c2ccc(Cl)cc2Cl)c(Cl)c1 (configuration not stated) [MICONAZOLE]
MIC50 (Candida albicans [21]): 2 mg/L
Activity (Candida albicans [22]): Active
Drug uptake [23]: Active
MIC50 (Candida albicans [24]): 1 mg/L
MIC50 (Candida albicans [25]): 2 mg/L
MIC50 (Candida albicans [26]): 1 mg/L
MIC50 (Candida albicans [27]): 1 mg/L
